Source: paper PMC6418145 (Scientific Reports, 2019)
Values belong to the molecule of their own block, whether it stands above or below them.

Assays:
C57BL/6 J mice = assay: 5-choice serial-reaction-time task (5-CSRTT), unspecific behavioural effects; format: in vivo
Method: Training was performed in 16 standard mouse Bussey-Saksida touchscreen chambers (model #80614, Campden Instruments Ltd., UK), previously described in detail. In short, each trapezoidal operant chamber was placed in a sound- and light- attenuating box individually equipped with a house light, a reward magazine with light, a liquid reward dispenser, a sound generator, a perforated stainless steel floor, and a touchscreen placed at the wide end of the chamber and covered permanently by a black acrylic glass 5-hole mask. The reward magazine, located opposite the touchscreen, was connected to a liquid dispenser delivering strawberry milk (Yazoo®). Infrared break-beam sensors located inside and on the front of the food magazine as well as on the touch-screen walls allowed the detection of reward delivery and the animal’s locomotor activity, respectively. Four individual chambers were connected to one computer for controlling the task flow using the graphical task design software ABET II Touch (model #89505, Campden Instruments Ltd., UK) and the WhiskerServer software (Cambridge University Technical Services Ltd., UK)[27].
Mice were habituated to the chambers for three consecutive 20-min sessions during which the house light and magazine light were permanently on. At the start of each session, 30 µl strawberry milk was delivered. Every 15 s after head entry into the magazine, an additional 30 µl strawberry milk was delivered. Head entry turned the magazine light off.
The 5-CSRTT training protocol, originally designed for rats[28], was similar as that previously described for mice[29]–[31]. The training comprised six stages with 30-min sessions initiated by the illumination of the house and magazine lights and delivery of 20 µl strawberry milk. Collection of the reward switched the magazine light off and started the first trial.
In the first stage, the middle window was permanently illuminated, which was turned off when touched, followed by reward delivery (20 µl) with illumination of the magazine light. Head entry switched off the magazine light. Mice performing 30 trials in a session continued to the next stage. Training sessions in stages 2–6 comprised a maximum of 120 trials. Collection of the reward initiated the inter-trial interval (ITI) followed by the illumination of one pseudo-randomly selected aperture for a fixed stimulus duration (SD). Any touch to the screen during the ITI was classified as a premature response which was not counted as a trial and terminated the current trial. Following stimulus detection, a nose poke to the corresponding aperture within a fixed time interval (limited hold; LH) was required for reward delivery. Premature responses made during the ITI, incorrect responses, and the omission of a response within the LH led to a timeout (TO, house light switched off for 4 s) instead of delivery of reward. Correct, incorrect and omitted responses defined the total number of trials. […] The criteria to pass the last stage and reach baseline performance were to complete >30 correct trials, with ≥80% accuracy and ≤30% omissions. Percentage accuracy was defined as the number of correct trials divided by the sum of correct and incorrect trials. Percentage omissions were calculated in terms of the number of completed trials. Premature responding was calculated as a percentage of completed trials. Perseveration was calculated as the number of additional responses made in the same aperture following a correct response. Additionally, the correct-response latency (time from stimulus presentation to correct response) and reward latency (time from correct response to reward collection) were measured across all trials.
Either one or up to three days before, as well as one day after the task challenge, mice were trained at baseline conditions to check for any unexpected changes in task performance (e.g. by long lasting drug- or challenge-induced effects). […]

[1] = Pharmacokinetics in plasma, CSF and cortical brain tissue after i.p. injection
Method: (§1) Blood (approximately 100 µl) was collected from the vena facialis in anaesthetised animals, followed by CSF sampling (approximately 10 µl) from the cisterna magna under pentobarbital anaesthesia (1:25 in saline, 10 ml/kg, i.p., Narcoren, Boehringer Ingelheim, Germany). Subsequently, the brain was removed and its anterior third (including the medial prefrontal and anterior cingulate cortices) dissected and transferred into Precellys tubes cooled in liquid nitrogen. For plasma extraction, blood was transferred to EDTA coated tubes and centrifuged for 10 min at 10,000 rpm at 4 °C. Maximal plasma concentration (Cmax), time taken to reach maximal plasma concentration (Tmax) and mean residence time were assessed using liquid chromatography–mass spectrometry analysis executed on the HP1200 (Agilent, CA, USA) coupled to the API 6500 (AB Sciex, Germany) using BI00001052 (Boehringer Ingelheim) as internal standard. In short, 5 µl of plasma or CSF sample were mixed with 10 nl internal standard. 70 µl acetonitrile (ACN)/methanol (1:1) was added, kept at −20 °C for 15 min and centrifuged for 4 min at 4000 rpm at 4 °C. 30 µl of the supernatant was mixed with 170 µl 0.1% formic acid. Brain homogenization was executed by Precellys Evolution (Bertin) after adding ACN/methanol (1:1)/aq.dest. (3:1) to each brain sample with a volume corresponding to 4 parts of the brain weight, followed by centrifugation for 1 min at 4000 rpm at 4 °C. 5 µl of the supernatant was mixed with 10 nl of internal standard.

in vivo = details: mouse, ip
Method: as §1

COX1 = COX1 (Homo sapiens, UniProt P23219); assay: Off-target enzyme assay; format: biochemical; details: 10 μM compound, not shown
[2] = tested on: 5-HT1B serotonin receptor; assay: Off-target radioligand binding; set-up: species or system human; details: 10 μM compound
COX2 = COX2 (Homo sapiens, UniProt P35354); assay: Off-target enzyme assay; format: biochemical; details: 10 μM compound, not shown
M3 muscarinic receptor = target: T1, M3 muscarinic receptor (Homo sapiens, UniProt P20309); assay: Off-target radioligand binding; details: 10 μM compound
T1 construct: expressed in transfected cells; host or cells: HEK-293 or CHO
T1 sequence (P20309 whole entry): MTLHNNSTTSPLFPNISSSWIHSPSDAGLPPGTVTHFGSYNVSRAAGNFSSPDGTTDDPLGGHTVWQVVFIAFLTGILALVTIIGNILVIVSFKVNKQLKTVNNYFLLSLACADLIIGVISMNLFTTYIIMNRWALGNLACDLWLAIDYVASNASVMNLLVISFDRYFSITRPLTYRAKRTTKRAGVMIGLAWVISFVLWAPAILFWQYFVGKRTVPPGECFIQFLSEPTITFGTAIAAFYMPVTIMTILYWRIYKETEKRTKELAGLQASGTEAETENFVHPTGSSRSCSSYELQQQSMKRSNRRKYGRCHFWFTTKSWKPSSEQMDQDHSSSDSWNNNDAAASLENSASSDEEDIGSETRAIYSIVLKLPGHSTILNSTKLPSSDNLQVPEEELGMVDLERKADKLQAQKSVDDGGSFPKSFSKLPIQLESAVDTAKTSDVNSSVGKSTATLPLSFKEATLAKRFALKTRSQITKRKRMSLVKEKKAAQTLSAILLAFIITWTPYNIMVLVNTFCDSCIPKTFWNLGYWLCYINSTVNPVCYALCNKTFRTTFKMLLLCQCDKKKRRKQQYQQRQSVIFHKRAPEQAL

H1 histamine receptor = target: T2, H1 histamine receptor (Homo sapiens, UniProt P35367); assay: Off-target radioligand binding; details: 10 μM compound
T2 construct: expressed in transfected cells; host or cells: HEK-293 or CHO
T2 sequence (P35367 whole entry): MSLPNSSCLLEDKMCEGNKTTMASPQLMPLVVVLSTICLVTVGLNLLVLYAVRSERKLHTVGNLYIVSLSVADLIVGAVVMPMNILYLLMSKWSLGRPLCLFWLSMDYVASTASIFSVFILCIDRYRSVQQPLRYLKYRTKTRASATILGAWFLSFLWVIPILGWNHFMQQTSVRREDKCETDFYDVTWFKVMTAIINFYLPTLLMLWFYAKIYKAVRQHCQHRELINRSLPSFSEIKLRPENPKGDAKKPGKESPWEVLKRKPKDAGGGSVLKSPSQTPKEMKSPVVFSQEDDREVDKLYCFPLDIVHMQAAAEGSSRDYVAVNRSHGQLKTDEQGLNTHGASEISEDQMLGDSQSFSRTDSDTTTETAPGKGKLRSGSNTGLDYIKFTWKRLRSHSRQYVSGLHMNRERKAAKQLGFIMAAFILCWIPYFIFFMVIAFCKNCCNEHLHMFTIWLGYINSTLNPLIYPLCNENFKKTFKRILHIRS

PDE4D2 = PDE4D2 (Homo sapiens, UniProt Q08499); assay: Off-target enzyme assay; format: biochemical; details: 10 μM compound, not shown
[3] = target: T3, 5-HT2A serotonin receptor (Homo sapiens, UniProt P28223); assay: Off-target radioligand binding; details: 10 μM compound
T3 construct: expressed in transfected cells; host or cells: HEK-293 or CHO
T3 sequence (P28223 whole entry): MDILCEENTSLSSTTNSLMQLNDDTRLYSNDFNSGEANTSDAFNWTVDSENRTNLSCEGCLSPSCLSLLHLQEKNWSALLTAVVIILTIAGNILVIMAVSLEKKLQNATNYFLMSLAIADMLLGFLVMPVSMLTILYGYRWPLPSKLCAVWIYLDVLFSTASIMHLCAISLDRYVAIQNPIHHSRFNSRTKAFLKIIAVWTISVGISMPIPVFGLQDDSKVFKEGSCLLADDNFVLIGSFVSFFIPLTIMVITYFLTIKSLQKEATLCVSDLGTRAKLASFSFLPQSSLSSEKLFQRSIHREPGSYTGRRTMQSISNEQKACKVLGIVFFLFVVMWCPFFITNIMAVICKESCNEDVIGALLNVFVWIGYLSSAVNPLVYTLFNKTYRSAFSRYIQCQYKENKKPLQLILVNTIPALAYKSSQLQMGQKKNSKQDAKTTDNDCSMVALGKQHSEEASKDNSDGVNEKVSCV
Method: Receptors and transporters of interest were overexpressed in either human recombinant human embryonic kidney (HEK)-293 or Chinese hamster ovary (CHO) cells. […] Results are expressed as percent inhibition of control-specific binding of the radioactively labelled ligand specific for the respective target. For enzyme inhibition, the effect was calculated as a percent inhibition of control enzyme activity. […] All presented values are the mean of two experiments.

[4] = target: T4, 5-HT2B serotonin receptor (Homo sapiens, UniProt P41595); assay: Off-target radioligand binding; details: 10 μM compound
T4 construct: expressed in transfected cells; host or cells: HEK-293 or CHO
T4 sequence (P41595 whole entry): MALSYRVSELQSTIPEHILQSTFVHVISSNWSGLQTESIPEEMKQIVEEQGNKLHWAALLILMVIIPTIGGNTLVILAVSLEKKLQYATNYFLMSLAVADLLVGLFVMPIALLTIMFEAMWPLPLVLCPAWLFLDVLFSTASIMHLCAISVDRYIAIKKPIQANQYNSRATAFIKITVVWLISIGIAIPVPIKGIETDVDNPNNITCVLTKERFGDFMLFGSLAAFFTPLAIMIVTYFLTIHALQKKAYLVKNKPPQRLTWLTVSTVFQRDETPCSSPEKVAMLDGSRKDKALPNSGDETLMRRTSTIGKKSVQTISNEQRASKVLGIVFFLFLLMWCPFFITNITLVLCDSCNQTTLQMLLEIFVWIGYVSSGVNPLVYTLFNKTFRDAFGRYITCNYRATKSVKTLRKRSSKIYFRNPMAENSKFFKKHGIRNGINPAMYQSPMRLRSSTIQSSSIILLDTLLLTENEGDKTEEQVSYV

M1 muscarinic receptor = target: T5, M1 muscarinic receptor (Homo sapiens, UniProt P11229); assay: Off-target radioligand binding; details: 10 μM compound
T5 construct: expressed in transfected cells; host or cells: HEK-293 or CHO
T5 sequence (P11229 whole entry): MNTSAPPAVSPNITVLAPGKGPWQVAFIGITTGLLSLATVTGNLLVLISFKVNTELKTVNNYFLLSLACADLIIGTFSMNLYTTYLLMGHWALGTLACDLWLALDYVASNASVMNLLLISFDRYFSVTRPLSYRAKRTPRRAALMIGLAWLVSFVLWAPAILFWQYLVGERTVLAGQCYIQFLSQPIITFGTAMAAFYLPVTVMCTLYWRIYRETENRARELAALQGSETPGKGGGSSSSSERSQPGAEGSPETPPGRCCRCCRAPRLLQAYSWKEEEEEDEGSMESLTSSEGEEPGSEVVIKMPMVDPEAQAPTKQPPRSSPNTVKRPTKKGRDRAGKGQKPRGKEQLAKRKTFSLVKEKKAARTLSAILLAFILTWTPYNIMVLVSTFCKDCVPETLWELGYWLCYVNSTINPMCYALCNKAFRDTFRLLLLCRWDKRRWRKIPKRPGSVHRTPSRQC

hM3Dq = tested on: hM3Dq; set-up: method as in PMID 25587888; details: FLIPR assay; cited from earlier work
μ opioid receptor = target: T6, μ opioid receptor (Homo sapiens, UniProt P35372); assay: Off-target radioligand binding; details: 10 μM compound
T6 construct: expressed in transfected cells; host or cells: HEK-293 or CHO
T6 sequence (P35372 whole entry): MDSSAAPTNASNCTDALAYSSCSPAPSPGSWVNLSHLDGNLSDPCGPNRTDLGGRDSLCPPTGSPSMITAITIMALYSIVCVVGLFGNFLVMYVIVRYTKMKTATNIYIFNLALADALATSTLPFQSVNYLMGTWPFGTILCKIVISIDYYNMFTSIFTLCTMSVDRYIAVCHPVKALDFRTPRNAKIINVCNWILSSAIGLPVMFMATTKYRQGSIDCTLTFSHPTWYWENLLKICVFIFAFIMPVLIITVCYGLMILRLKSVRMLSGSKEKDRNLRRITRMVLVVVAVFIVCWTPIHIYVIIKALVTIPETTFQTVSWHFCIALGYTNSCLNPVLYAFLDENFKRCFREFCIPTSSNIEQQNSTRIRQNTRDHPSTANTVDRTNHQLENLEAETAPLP

M2 muscarinic receptor = target: T7, M2 muscarinic receptor (Homo sapiens, UniProt P08172); assay: Off-target radioligand binding; details: 10 μM compound
T7 construct: expressed in transfected cells; host or cells: HEK-293 or CHO
T7 sequence (P08172 whole entry): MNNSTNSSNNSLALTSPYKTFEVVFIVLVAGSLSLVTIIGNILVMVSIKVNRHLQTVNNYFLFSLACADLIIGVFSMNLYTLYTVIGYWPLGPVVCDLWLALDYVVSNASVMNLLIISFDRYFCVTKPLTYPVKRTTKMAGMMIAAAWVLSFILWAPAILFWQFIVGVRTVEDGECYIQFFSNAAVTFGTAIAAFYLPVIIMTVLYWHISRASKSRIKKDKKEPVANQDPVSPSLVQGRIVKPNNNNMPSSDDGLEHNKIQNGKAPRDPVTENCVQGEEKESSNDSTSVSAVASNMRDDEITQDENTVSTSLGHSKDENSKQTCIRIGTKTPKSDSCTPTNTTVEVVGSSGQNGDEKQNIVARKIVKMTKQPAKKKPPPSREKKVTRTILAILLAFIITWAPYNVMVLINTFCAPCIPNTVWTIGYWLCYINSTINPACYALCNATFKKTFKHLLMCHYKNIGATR

AChE = AChE (Homo sapiens, UniProt P22303); details: 10 μM compound, not shown
Sequence of AChE (P22303 32-614): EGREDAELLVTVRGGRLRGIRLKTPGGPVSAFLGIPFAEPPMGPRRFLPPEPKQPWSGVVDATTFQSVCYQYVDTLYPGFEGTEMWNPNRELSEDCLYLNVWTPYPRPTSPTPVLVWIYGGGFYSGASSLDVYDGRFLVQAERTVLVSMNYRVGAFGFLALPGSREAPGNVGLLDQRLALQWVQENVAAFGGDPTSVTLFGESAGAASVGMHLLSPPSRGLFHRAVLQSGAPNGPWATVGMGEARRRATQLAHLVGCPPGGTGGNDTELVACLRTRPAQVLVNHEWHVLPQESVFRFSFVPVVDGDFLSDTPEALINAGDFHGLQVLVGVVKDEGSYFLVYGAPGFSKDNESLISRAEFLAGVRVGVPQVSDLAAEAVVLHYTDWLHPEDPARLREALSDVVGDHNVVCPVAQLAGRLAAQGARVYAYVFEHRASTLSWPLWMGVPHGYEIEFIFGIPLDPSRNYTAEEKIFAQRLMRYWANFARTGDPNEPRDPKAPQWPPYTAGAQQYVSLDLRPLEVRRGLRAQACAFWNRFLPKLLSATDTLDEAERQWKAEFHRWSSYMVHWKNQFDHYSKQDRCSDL

PDE3A = PDE3A (Homo sapiens, UniProt Q14432); assay: Off-target enzyme assay; format: biochemical; details: 10 μM compound, not shown
hM4Di = target: T8, hM4Di (Homo sapiens, UniProt P08173, A203G/Y113C); assay: FLIPR Ca2+ oscillation assay in primary rat neuronal cultures transduced with hM4Di; format: cell-based; details: reduction of Ca2+ oscillation frequency, hM4Di-transduced rat primary neurons, Hill fit; read-out: half maximal effective concentration (EC50) at hM4Di
T8 construct: expressed in transfected cells; host or cells: primary cortical neurons of embryonic (E18) Sprague-Dawley rats, AAV-transduced
T8 sequence (P08173 1-479 Y113C/A203G): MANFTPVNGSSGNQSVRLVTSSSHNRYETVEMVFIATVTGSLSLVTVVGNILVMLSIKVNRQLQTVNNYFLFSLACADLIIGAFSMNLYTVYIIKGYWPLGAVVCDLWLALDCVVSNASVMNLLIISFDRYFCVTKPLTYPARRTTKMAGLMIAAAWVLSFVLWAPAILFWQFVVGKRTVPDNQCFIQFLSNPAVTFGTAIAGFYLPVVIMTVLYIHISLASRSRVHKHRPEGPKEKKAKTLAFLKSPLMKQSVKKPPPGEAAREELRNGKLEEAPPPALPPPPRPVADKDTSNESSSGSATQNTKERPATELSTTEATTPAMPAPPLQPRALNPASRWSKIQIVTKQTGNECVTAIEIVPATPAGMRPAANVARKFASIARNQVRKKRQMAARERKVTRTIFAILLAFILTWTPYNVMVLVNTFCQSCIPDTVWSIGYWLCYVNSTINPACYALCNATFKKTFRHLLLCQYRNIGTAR
Method: Briefly, cortices were dissected from embryonic brains, meninges were removed, and cortices transferred into ice-cold dissociation buffer (2 mM kynurenic acid, 10 mM HEPES, 20 mM MgCl2 (Fluka, Germany) and 33.4 mM Glucose in Hank’s Balanced Salt Solution (HBSS), pH 7.4 (Gibco, Thermo Fischer Scientific, Massachusetts, USA). Cortices were then dissociated in 20 units/ml papain solution (5.5 mM L- Cysteine hydrochloride, 1.1 mM ethylenediamine tetra-acetic acid [EDTA], 0.067 mM 2-Mercaptoethanol in Minimum Essential Medium [MEM]) for 15 min at 37 °C. Cortices were washed twice by adding 20 ml plating medium (1:50 foetal calve serum, 1:100 penicillin/streptomycin and 1:100 GlutaMax in MEM) followed by cell filtration using a 70 µm cell strainer (Corning, model #352350, Merck, Germany) to obtain a single-cell suspension. Dissociated cells were re-suspended in serum-free Neurobasal medium with Glutamax and B27 supplement (Gibco) and plated on PDL-coated 96 MTPs (Corning #356640). Virus (ssAAV-1/2-hSyn1-hM4D[Gi]_mCherry-WPRE-hGHp[A]) transduction was performed immediately after plating. Cells were maintained at 37 °C (5% CO2 and 10% O2) in a humidified incubator. A half feed medium change was done on DIV8. Final assay conditions used for evaluating activity of compounds were 0.95 × 10^5 cells/cm^2, transduced with 10.000 multiplicity of infection and measured on DIV9.
Medium was removed and cells were incubated in assay buffer (HBSS, Gibco, 10 mM HEPES, pH 7.4) containing 4 µM Fluo-4AM (Thermo Fischer Scientific) and 0.1% Pluronic F-127 (Thermo Fischer Scientific #P3000MP) for 1 h at room temperature in the dark. Loading buffer was then replaced with assay buffer. After 10 min, assay plates were measured in the FLIPR tetra (Molecular Devices, California, USA) using green fluorescence filter settings (excitation 470–495 nm, emission 515–575 nm). Fluorescence signals were recorded at 1 s intervals (0.4 s exposure time). Compound addition was automated in a single addition protocol. Tested compounds (concentrations:0.3 nM–1 µM; retigabine at 30 µM) were added after recording a baseline response for 5 min followed by another 5 min for recording compound effects on Ca^2+ oscillations. Each compound dose was repeated on three individual plates in duplicates.
Time-series raw fluorescence traces recorded from the FLIPR assay were analysed by detecting Ca^2+ peaks based on a fixed amplitude threshold[19]. The change in oscillation frequency was determined by counting the number of peaks in a defined time interval (5 min) before and after addition of the tested compound and calculating the Ca^2+ oscillations frequency from their number. […] For visualisation, all data were transferred to GraphPad Prism 7 (Graphpad Software, Inc., CA, USA).

[5] = target: T9, 5-HT1A serotonin receptor (Homo sapiens, UniProt P08908); assay: Off-target radioligand binding; details: 10 μM compound
T9 construct: expressed in transfected cells; host or cells: HEK-293 or CHO
T9 sequence (P08908 whole entry): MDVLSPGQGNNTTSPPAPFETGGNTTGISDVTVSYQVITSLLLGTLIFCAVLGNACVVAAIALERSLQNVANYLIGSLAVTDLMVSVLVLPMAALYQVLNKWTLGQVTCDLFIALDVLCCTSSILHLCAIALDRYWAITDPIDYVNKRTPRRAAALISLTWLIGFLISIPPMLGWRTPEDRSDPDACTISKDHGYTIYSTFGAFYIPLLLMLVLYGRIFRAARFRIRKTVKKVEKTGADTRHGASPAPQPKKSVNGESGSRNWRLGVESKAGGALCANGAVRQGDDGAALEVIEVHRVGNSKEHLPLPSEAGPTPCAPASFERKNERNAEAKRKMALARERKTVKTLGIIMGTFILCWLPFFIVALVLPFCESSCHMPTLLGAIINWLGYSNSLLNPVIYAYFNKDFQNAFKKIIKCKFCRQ

Lck kinase = Lck kinase (Homo sapiens, UniProt P06239); assay: Off-target enzyme assay; format: biochemical; details: 10 μM compound, not shown
α1A adrenoreceptor = target: T10, α1A adrenoreceptor (Homo sapiens, UniProt P35348); assay: Off-target radioligand binding; details: 10 μM compound
T10 construct: expressed in transfected cells; host or cells: HEK-293 or CHO

D1 dopamine receptor = target: T11, D1 dopamine receptor (Homo sapiens, UniProt P21728); assay: Off-target radioligand binding; details: 10 μM compound
T11 construct: expressed in transfected cells; host or cells: HEK-293 or CHO

5-HT3 serotonin receptor = 5-HT3 serotonin receptor (Homo sapiens, UniProt P46098); assay: Off-target radioligand binding; details: 10 μM compound
κ opioid receptor = assay: Off-target radioligand binding; set-up: species or system human; details: 10 μM compound
δ opioid receptor = target: T12, δ opioid receptor (Homo sapiens, UniProt P41143); assay: Off-target radioligand binding; details: 10 μM compound
T12 construct: expressed in transfected cells; host or cells: HEK-293 or CHO
T12 sequence (P41143 whole entry): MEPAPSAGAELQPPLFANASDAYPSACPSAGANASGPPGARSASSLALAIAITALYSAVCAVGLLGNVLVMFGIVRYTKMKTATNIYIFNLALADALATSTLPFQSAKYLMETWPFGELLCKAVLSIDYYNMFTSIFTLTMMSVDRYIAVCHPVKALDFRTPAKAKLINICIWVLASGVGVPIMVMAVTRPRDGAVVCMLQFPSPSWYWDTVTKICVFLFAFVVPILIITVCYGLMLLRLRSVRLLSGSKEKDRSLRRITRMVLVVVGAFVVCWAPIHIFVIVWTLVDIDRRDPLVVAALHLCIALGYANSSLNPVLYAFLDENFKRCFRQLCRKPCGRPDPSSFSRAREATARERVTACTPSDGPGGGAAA

D2 dopamine receptor = target: T13, D2 dopamine receptor (Homo sapiens, UniProt P14416); assay: Off-target radioligand binding; details: 10 μM compound
T13 construct: expressed in transfected cells; host or cells: HEK-293 or CHO

[6] = brain (cortical tissue), 3.5 mg/kg
[7] = mice, 15 min after 3.0 mg/kg Cmpd-21 i.p.
[8] = mice, 60 min after 3.0 mg/kg Cmpd-21 i.p.

attentional accuracy (C57BL/6 J mice; CLZ 0.1 mg/kg i.p., p = 0.0439): mild decrease | omissions (inattentiveness) (C57BL/6 J mice; CLZ 1 mg/kg i.p., p = 0.0108): mild increase | mean CLZ plasma concentration as % of mean CNO plasma concentration ([1]; mice, 15 min after i.p. 3.5 mg/kg CNO): approximately 3.3% | free (CSF) concentration as % of the brain concentration ([1]; mice, after i.p. 1 mg/kg CLZ): approximately 0.1% | concentration in CSF ([1]; mice, all sampling points (15, 30, 60 min) after i.p. 3.5 mg/kg CNO, detection limit): 1 to 2.5 nM | decline within 60 min in plasma and brain tissue ([1]; mice, single injection of CLZ): approximately 2 fold | Kp (in vivo; C57BL/6J, CSF, 1 mg/kg): ~0.01 | concentration at 15 min (in vivo; CSF, 1 mg/kg): 1.9 nM | concentration at 15 min (in vivo; [6]): ~427 nM | concentration at 60 min (in vivo; [6]): 406 nM | Kp at 15 min (in vivo; brain, 1 mg/kg): ~6 | concentration at 15 min (in vivo; brain, 1 mg/kg): 2060 nM | concentration at 60 min (in vivo; brain, 1 mg/kg): 1020 nM | Tmax (in vivo; plasma, brain and CSF, 1 mg/kg): 15 min | concentration at 15 min (in vivo; plasma, 1 mg/kg): 344 nM | concentration at 60 min (in vivo; plasma, 1 mg/kg): 123 nM
Structure (SMILES): CN1CCN(C2=Nc3cc(Cl)ccc3Nc3ccccc32)CC1 [CLZ, clozapine]
behavioural changes in 5-CSRTT parameters (C57BL/6 J mice; CLZ 0.1, 0.3 and 1 mg/kg i.p., vs vehicle): did not produce any significant behavioural changes in most 5-CSRTT parameters

Structure (SMILES): c1ccc2c(c1)N=C(N1CCNCC1)c1ccccc1N2 [Cmpd-21, compound 21]
inhibition (COX1): < 25% | behavioural changes in 5-CSRTT parameters (C57BL/6 J mice; Cmpd-21 0.3, 1 and 3 mg/kg i.p.): did not produce any significant behavioural changes in any 5-CSRTT parameters | competitive inhibition of ligand binding [2]: > 50% | inhibition (COX2): 60% | competitive inhibition of ligand binding (M3 muscarinic receptor): > 50% | competitive inhibition of ligand binding (H1 histamine receptor): > 50% | inhibition (PDE4D2): < 25% | competitive inhibition of ligand binding [3]: > 50% | competitive inhibition of ligand binding [4]: > 50% | competitive inhibition of ligand binding (M1 muscarinic receptor): > 50% | EC50 (hM3Dq): 1.7 nM | mean brain concentration [1, 7]: 722 nM | mean concentration in CSF [1, 7]: 52 nM | mean concentration in plasma [1, 7]: 5833 nM | CSF concentration as % of peak value [1, 8]: 54% | mean brain concentration [1, 8]: 1273 nM | plasma concentration as % of peak value [1, 8]: 57% | time of peak plasma and CSF levels ([1]; mice, after 3.0 mg/kg Cmpd-21 i.p., earliest time point of measurement): 15 min | conversion to CLZ or CNO ([1]; mice, data not shown): did not detect any conversion | competitive inhibition of ligand binding (μ opioid receptor): > 50% | competitive inhibition of ligand binding (M2 muscarinic receptor): > 50% | inhibition (AChE): < 25% | inhibition (PDE3A): < 25% | EC50 (hM4Di): 2.95 nM | competitive inhibition of ligand binding [5]: > 50% | inhibition (Lck kinase): < 25% | competitive inhibition of ligand binding (α1A adrenoreceptor): > 50% | competitive inhibition of ligand binding (D1 dopamine receptor): > 50% | competitive inhibition of ligand binding (5-HT3 serotonin receptor): > 50% | competitive inhibition of ligand binding (κ opioid receptor): > 50% | competitive inhibition of ligand binding (δ opioid receptor): > 50% | competitive inhibition of ligand binding (D2 dopamine receptor): > 50%

Structure (SMILES): Clc1ccc2c(c1)N=C(N1CCNCC1)c1ccccc1N2 [NorCLZ, norclozapine]
detection of metabolite in plasma ([1]; mice, 15, 30, 60 min after i.p. 1 mg/kg CLZ): detectable in all plasma samples
